The results in this text go back to patent publication US20250361230A1, “LATS Inhibitors and Uses Thereof” (The USA, as Represented by the Secretary, Dept. of Heath …, priority 2022, published 2025).

pIC50: −log10 of the molar value. Read-outs that look alike come from different tables or passages of the source.

Type in all cases: biochemical
One assay has as its target T1, LATS1 (Homo sapiens, UniProt O95835).
T1 sequence (O95835 1-1130): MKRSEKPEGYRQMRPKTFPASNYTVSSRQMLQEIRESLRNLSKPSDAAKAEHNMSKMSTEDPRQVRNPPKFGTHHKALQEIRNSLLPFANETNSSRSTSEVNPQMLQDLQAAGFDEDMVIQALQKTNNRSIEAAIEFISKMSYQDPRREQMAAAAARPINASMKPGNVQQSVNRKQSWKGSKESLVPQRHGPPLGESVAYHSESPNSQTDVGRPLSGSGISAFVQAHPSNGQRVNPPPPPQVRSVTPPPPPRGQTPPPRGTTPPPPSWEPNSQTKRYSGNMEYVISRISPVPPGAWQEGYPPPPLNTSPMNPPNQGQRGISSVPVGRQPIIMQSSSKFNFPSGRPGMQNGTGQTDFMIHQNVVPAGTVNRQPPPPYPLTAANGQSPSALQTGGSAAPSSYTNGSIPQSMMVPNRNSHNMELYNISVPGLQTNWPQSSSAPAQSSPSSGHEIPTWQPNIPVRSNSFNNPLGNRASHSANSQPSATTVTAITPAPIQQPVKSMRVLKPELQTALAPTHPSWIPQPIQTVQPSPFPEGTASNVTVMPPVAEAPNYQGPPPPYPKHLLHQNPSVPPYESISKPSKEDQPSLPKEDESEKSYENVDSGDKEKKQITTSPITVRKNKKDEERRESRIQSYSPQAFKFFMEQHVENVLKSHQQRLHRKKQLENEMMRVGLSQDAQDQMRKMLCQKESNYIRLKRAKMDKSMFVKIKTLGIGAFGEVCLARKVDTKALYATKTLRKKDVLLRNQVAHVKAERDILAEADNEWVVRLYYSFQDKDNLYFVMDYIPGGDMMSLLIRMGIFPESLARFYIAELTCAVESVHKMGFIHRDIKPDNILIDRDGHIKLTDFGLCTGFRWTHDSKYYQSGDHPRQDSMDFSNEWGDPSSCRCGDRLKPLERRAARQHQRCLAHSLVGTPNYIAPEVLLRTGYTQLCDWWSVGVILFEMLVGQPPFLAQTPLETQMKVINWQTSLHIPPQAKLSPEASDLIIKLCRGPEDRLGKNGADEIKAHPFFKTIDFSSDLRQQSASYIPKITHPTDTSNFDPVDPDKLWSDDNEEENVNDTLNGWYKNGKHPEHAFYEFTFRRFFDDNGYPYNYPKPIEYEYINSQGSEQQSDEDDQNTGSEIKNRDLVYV
In words: RBC HotSpot kinase assay (33P-ATP, P81 filter-binding), LATS1. Particulars: read-out: LATS1 IC50. Put shortly:
(§1)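 Compounds were run as single 10-point titrations to give IC50 values in nM. Each kinase was mixed with substrate and cofactors in 20 mM Hepes pH 7.5 reaction buffer with 1% DMSO, then exposed to compound for 20 min. 33P-ATP was added for a 2 h room-temperature reaction, with activity measured by P81 filter binding.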

Another assay addresses T2, LATS2 (Homo sapiens, UniProt Q9NRM7).
T2 sequence (Q9NRM7 1-1088): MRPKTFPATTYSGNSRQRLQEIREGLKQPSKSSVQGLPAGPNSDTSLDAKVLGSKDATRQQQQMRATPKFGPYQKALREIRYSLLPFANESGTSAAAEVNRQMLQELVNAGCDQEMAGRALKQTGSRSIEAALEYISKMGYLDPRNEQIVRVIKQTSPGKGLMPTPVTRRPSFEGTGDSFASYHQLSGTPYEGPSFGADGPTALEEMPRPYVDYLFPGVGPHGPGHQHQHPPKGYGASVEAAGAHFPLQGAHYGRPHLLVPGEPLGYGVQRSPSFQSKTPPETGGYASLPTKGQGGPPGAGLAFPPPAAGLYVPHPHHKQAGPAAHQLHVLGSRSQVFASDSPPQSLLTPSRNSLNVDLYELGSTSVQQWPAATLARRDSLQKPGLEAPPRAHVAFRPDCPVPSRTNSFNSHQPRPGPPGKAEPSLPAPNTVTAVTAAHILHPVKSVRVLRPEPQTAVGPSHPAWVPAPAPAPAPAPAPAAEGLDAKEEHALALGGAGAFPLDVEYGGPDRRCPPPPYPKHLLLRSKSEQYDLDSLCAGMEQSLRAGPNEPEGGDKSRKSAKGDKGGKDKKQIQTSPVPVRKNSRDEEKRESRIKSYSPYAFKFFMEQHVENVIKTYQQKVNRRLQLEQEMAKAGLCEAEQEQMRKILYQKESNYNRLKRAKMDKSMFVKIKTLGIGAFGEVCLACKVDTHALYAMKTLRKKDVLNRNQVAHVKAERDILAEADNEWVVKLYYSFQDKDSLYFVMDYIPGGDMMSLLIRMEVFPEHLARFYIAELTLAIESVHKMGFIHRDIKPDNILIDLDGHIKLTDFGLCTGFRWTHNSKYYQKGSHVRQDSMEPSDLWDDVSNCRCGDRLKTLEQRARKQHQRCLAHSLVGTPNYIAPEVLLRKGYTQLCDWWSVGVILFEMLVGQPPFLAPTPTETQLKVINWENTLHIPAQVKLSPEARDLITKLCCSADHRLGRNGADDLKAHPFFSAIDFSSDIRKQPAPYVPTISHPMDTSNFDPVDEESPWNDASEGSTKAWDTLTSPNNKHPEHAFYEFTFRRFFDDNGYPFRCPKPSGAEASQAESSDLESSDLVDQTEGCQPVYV
The assay is described as follows: RBC HotSpot kinase assay (33P-ATP, P81 filter-binding), LATS2. The settings on record: read-out: LATS2 IC50. Put shortly: as §1

In another assay the target is AKT (Homo sapiens, UniProt P31749). In words: RBC HotSpot kinase assay (33P-ATP, P81 filter-binding), AKT. Particulars: read-out: AKT IC50. In short, it runs like this: as §1
Chain of AKT (P31749 whole entry): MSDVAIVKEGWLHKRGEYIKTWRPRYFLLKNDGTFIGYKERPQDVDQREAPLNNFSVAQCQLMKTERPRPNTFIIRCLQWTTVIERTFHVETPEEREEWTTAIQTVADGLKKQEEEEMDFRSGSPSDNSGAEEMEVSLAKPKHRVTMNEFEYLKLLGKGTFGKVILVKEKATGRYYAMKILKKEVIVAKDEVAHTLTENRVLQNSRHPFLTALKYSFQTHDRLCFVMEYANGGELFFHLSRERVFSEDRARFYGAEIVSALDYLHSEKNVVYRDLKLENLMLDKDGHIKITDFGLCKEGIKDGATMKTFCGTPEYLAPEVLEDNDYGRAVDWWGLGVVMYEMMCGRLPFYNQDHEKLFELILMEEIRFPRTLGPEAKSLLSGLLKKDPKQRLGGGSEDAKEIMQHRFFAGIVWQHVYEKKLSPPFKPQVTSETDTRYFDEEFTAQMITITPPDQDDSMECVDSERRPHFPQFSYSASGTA
The mark [1] stands for this setting: Table 28, biochemical kinase assay.
Setting [2] is: Table 32, biochemical kinase assay.

The term pIC50 denotes the IC50 on a negative log10 scale, so that one unit is a factor of ten. `Cc1cc(-c2ccnc3[nH]cc(-c4cccnc4)c23)cc(F)c1[C@@]1(O)[C@H](C)CN(C(=O)CN)C[C@@H]1C` [Compound 318, 2-amino-1-((3S,4s,5R)-4-(2-fluoro-6-methyl-4-(3-(pyridin-3-yl)-1H-pyrrolo[2,3-b]pyridin-4-yl)phenyl)-4-hydroxy-3,5-dimethylpiperidin-1-yl)ethan-1-one]: the figures for the pIC50 on LATS1 (setting [1]), at LATS2 (setting [1]) and on AKT (setting [1]) were 8.39, 8.89 and 5.85, respectively.

In the case of `NCC(O)(c1ccc(Cl)cc1)c1ccc(-c2ccnc3[nH]cc(Cl)c23)cc1` (stereo not drawn) [Compound 1003, 2-amino-1-(4-(3-chloro-1H-pyrrolo[2,3-b]pyridin-4-yl)phenyl)-1-(4-chlorophenyl) ethan-1-ol], the pIC50 was 7.50 on LATS1 (setting [2]), 7.92 at LATS2 (setting [2]) and 8.49 at AKT (setting [2]).

For `NCC(O)(c1ccc(Cl)cc1)c1ccc(-c2ccnc3[nH]cc(Cl)c23)nc1` (stereo not drawn) [Compound 1010, 2-amino-1-(6-(3-chloro-1H-pyrrolo[2,3-b]pyridin-4-yl)pyridin-3-yl)-1-(4-chlorophenyl)ethan-1-ol], the negative-log IC50 (pIC50) was 9.30 on LATS1 (setting [2]), greater than 9.30 on LATS2 (setting [2]) and greater than 9.30 at AKT (setting [2]).

In the case of `NCC(O)(c1ccc(Cl)cc1)c1ccc(-c2ccnc3[nH]cc(-c4ccccc4)c23)nc1` (stereo not drawn) [Compound 1012, 2-amino-1-(4-chlorophenyl)-1-(6-(3-phenyl-1H-pyrrolo[2,3-b]pyridin-4-yl)pyridin-3-yl) ethan-1-ol], the pIC50 on LATS1 (setting [2]) was 8.07; on LATS2 (setting [2]), 8.08; at AKT (setting [2]), 6.90.

Turning to `CC(=O)NCC(O)(c1ccc(Cl)cc1)c1ccc(-c2ccnc3[nH]ccc23)cc1` (stereo not drawn) [Compound 1014, N-(2-(4-(1H-pyrrolo[2,3-b]pyridin-4-yl)phenyl)-2-(4-chlorophenyl)-2-hydroxyethyl)acetamide], the values for the pIC50 at LATS1 (setting [2]), at LATS2 (setting [2]) and at AKT (setting [2]) were 8.43, 8.29 and 7.76, respectively.

For the compound `O=C(CO)NCC(O)(c1ccc(Cl)cc1)c1ccc(-c2ccnc3[nH]ccc23)cc1` (stereo not drawn) [Compound 1015, N-(2-(4-(1H-pyrrolo[2,3-b]pyridin-4-yl)phenyl)-2-(4-chlorophenyl)-2-hydroxyethyl)-2-hydroxyacetamide], the pIC50 at LATS1 (setting [2]) is 8.40; at LATS2 (setting [2]), 8.43; at AKT (setting [2]), 8.23.

As for `O=C(CO)NCC(O)(c1ccc(Cl)cc1)c1ccc(-c2ccnc3[nH]cc(F)c23)cc1` (stereo not drawn) [Compound 1016, N-(2-(4-chlorophenyl)-2-(4-(3-fluoro-1H-pyrrolo[2,3-b]pyridin-4-yl)phenyl)-2-hydroxyethyl)-2-hydroxyacetamide], the pIC50 on LATS1 (setting [2]) is 8.15; at LATS2 (setting [2]) it was 8.40; on AKT (setting [2]), 8.13.

`O=C(CO)NCC(O)(c1ccc(Cl)cc1)c1ccc(-c2ccnc3[nH]cc(Cl)c23)cc1` (stereo not drawn) [Compound 1017, N-(2-(4-(3-chloro-1H-pyrrolo[2,3-b]pyridin-4-y1)phenyl)-2-(4-chlorophenyl)-2-hydroxyethyl)-2-hydroxyacetamide]: the pIC50 at LATS1 (setting [2]) is 8.27; on LATS2 (setting [2]), 8.55; at AKT (setting [2]), 8.55.

`CC(C)(O)C(=O)NCC(O)(c1ccc(Cl)cc1)c1ccc(-c2ccnc3[nH]ccc23)cc1` (stereo not drawn) [Compound 1018, N-(2-(4-(1H-pyrrolo[2,3-b]pyridin-4-yl)phenyl)-2-(4-chlorophenyl)-2-hydroxyethyl)-2-hydroxy-2-methylpropanamide]: the pIC50 at LATS1 (setting [2]) is 7.73; at LATS2 (setting [2]), 8.00; at AKT (setting [2]), 7.13.

For `CN(C)CC(=O)NCC(O)(c1ccc(Cl)cc1)c1ccc(-c2ccnc3[nH]ccc23)cc1` (stereo not drawn) [Compound 1019, N-(2-(4-(1H-pyrrolo[2,3-b]pyridin-4-yl)phenyl)-2-(4-chlorophenyl)-2-hydroxyethyl)-2-(dimethylamino) acetamide], the pIC50 at LATS1 (setting [2]) is 8.40; at LATS2 (setting [2]), 8.25; on AKT (setting [2]), 8.27.

Regarding `NCC(=O)NCC(O)(c1ccc(Cl)cc1)c1ccc(-c2ccnc3[nH]ccc23)cc1` (stereo not drawn) [Compound 1020, N-(2-(4-(1H-pyrrolo[2,3-b]pyridin-4-yl)phenyl)-2-(4-chlorophenyl)-2-hydroxyethyl)-2-aminoacetamide], the pIC50 was 8.52 at LATS1 (setting [2]), 8.62 on LATS2 (setting [2]) and 8.85 at AKT (setting [2]).

`O=C(CP(=O)(O)O)NCC(O)(c1ccc(Cl)cc1)c1ccc(-c2ccnc3[nH]ccc23)cc1` (stereo not drawn) [Compound 1022, (2-((2-(4-(1H-pyrrolo[2,3-b]pyridin-4-yl)phenyl)-2-(4-chlorophenyl)-2-hydroxyethyl)amino)-2-oxoethyl) phosphonic acid]: the pIC50 is 8.02 at LATS1 (setting [2]), 7.92 on LATS2 (setting [2]) and 8.51 at AKT (setting [2]).

For `O=C(NCC(O)(c1ccc(Cl)cc1)c1ccc(-c2ccnc3[nH]ccc23)cc1)[C@@H]1CCCN1` (stereo partly drawn) [Compound 1023, (2S)—N-(2-(4-(1H-pyrrolo[2,3-b]pyridin-4-yl)phenyl)-2-(4-chlorophenyl)-2-hydroxyethyl)pyrrolidine-2-carboxamide], the results for the pIC50 on LATS1 (setting [2]), on LATS2 (setting [2]) and at AKT (setting [2]) were 8.47, 8.34 and 8.04, respectively.

Consider `O=C(NCC(O)(c1ccc(Cl)cc1)c1ccc(-c2ccnc3[nH]ccc23)cc1)[C@H]1CCCN1` (stereo partly drawn) [Compound 1024, (2R)-N-(2-(4-(1H-pyrrolo[2,3-b]pyridin-4-yl)phenyl)-2-(4-chlorophenyl)-2-hydroxyethyl)pyrrolidine-2-carboxamide], for which the pIC50 at LATS1 (setting [2]) was 8.43; at LATS2 (setting [2]), 8.62; on AKT (setting [2]), 8.25.

`NCC(=O)NCC(=O)NCC(O)(c1ccc(Cl)cc1)c1ccc(-c2ccnc3[nH]ccc23)cc1` (stereo not drawn) [Compound 1025, N-(2-(4-(1H-pyrrolo[2,3-b]pyridin-4-yl)phenyl)-2-(4-chlorophenyl)-2-hydroxyethyl)-2-(2-aminoacetamido)acetamide]: the pIC50 at LATS1 (setting [2]) was 8.39; on LATS2 (setting [2]), 8.35; at AKT (setting [2]), 8.51.

Turning to `C[C@H](N)C(=O)NCC(O)(c1ccc(Cl)cc1)c1ccc(-c2ccnc3[nH]ccc23)cc1` (stereo partly drawn) [Compound 1026, (2S)-N-(2-(4-(1H-pyrrolo[2,3-b]pyridin-4-yl)phenyl)-2-(4-chlorophenyl)-2-hydroxyethyl)-2-aminopropanamide], the results for the pIC50 at LATS1 (setting [2]), on LATS2 (setting [2]) and at AKT (setting [2]) were 8.42, 8.64 and 8.92, respectively.
